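Assay format: 96-well plates, 48-hour exposure. GI50 is the concentration that inhibits growth by half. TGI denotes the concentration required for complete inhibition of growth.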
Legend:
Assay in all cases: growth of human tumour cells (NCI), 48 h
MDA-MB-231 breast = tested on: MDA-MB-231 breast
HT29 colon = tested on: HT29 colon
HCC-2998 colon = tested on: HCC-2998 colon
HOP-92 NSCLC = tested on: HOP-92 NSCLC
MCF7 breast = tested on: MCF7 breast
DU-145 prostate = tested on: DU-145 prostate
UACC-62 melanoma = tested on: UACC-62 melanoma
SK-MEL-28 melanoma = tested on: SK-MEL-28 melanoma
SNB-75 CNS = tested on: SNB-75 CNS
OVCAR-3 ovarian = tested on: OVCAR-3 ovarian
MDA-MB-435 = tested on: MDA-MB-435
SK-MEL-2 melanoma = tested on: SK-MEL-2 melanoma
CCRF-CEM leukemia = tested on: CCRF-CEM leukemia
SR leukemia = tested on: SR leukemia
NCI-H226 lung = tested on: NCI-H226 lung
OVCAR-8 ovarian = tested on: OVCAR-8 ovarian
SF-295 CNS = tested on: SF-295 CNS
PC-3 prostate = tested on: PC-3 prostate
T-47D breast = tested on: T-47D breast
A549 NSCLC = tested on: A549 NSCLC
HS 578T breast = tested on: HS 578T breast
NCI-H522 lung = tested on: NCI-H522 lung
CAKI-1 renal = tested on: CAKI-1 renal
MOLT-4 leukemia = tested on: MOLT-4 leukemia
SK-OV-3 ovarian = tested on: SK-OV-3 ovarian
IGROV1 ovarian = tested on: IGROV1 ovarian
BT-549 breast = tested on: BT-549 breast
NCI-H23 lung = tested on: NCI-H23 lung
HOP-62 NSCLC = tested on: HOP-62 NSCLC
SN12C renal = tested on: SN12C renal
UO-31 renal = tested on: UO-31 renal
TK-10 renal = tested on: TK-10 renal
786-0 renal = tested on: 786-0 renal
OVCAR-4 ovarian = tested on: OVCAR-4 ovarian
ACHN renal = tested on: ACHN renal
RXF 393 renal = tested on: RXF 393 renal
MALME-3M melanoma = tested on: MALME-3M melanoma
KM12 colon = tested on: KM12 colon
HL-60(TB) leukemia = tested on: HL-60(TB) leukemia
U251 CNS = tested on: U251 CNS
RPMI-8226 leukemia = tested on: RPMI-8226 leukemia
SF-539 CNS = tested on: SF-539 CNS
OVCAR-5 ovarian = tested on: OVCAR-5 ovarian
SF-268 CNS = tested on: SF-268 CNS
LOX IMVI melanoma = tested on: LOX IMVI melanoma
EKVX NSCLC = tested on: EKVX NSCLC
COLO 205 colon = tested on: COLO 205 colon
K-562 leukemia = tested on: K-562 leukemia
MDA-MB-468 breast = tested on: MDA-MB-468 breast
NCI-H460 lung = tested on: NCI-H460 lung
HCT-116 colon = tested on: HCT-116 colon
SNB-19 CNS = tested on: SNB-19 CNS
HCT-15 colon = tested on: HCT-15 colon
UACC-257 melanoma = tested on: UACC-257 melanoma

Q: With `CC1=C2C(=C[C@@](C)(CO)[C@@H]2O)/C(=N\N)[C@](C)(O)C12CC2` as the compound, how does the GI50 (MDA-MB-231 breast) read?
A: Its GI50 is 2250 nM.

Q: What about the TGI (MDA-MB-231 breast) of the same compound?
A: The TGI was 6520 nM.

Q: What about the GI50 (HT29 colon) of the same compound?
A: Its GI50 is 1940 nM.

Q: And the TGI (HT29 colon)?
A: The TGI was 8750 nM.

Q: What about the GI50 (HCC-2998 colon) of the same compound?
A: Its GI50 is 1790 nM.

Q: And the TGI (HCC-2998 colon)?
A: The TGI was 3770 nM.

Q: And the GI50 (HOP-92 NSCLC)?
A: Its GI50 is 2540 nM.

Q: What about the TGI (HOP-92 NSCLC) of the same compound?
A: The TGI was 6750 nM.

Q: And the GI50 (MCF7 breast)?
A: Its GI50 is 405 nM.

Q: And the TGI (MCF7 breast)?
A: The TGI was greater than 100000 nM.

Q: And the GI50 (DU-145 prostate)?
A: The GI50 was 812 nM.

Q: What about the TGI (DU-145 prostate) of the same compound?
A: Its TGI is 30500 nM.

Q: What about the GI50 (UACC-62 melanoma) of the same compound?
A: The GI50 was 1740 nM.

Q: And the TGI (UACC-62 melanoma)?
A: Its TGI is 3230 nM.

Q: And the GI50 (SK-MEL-28 melanoma)?
A: Its GI50 is 2040 nM.

Q: And the TGI (SK-MEL-28 melanoma)?
A: The TGI was 4110 nM.

Q: What about the GI50 (SNB-75 CNS) of the same compound?
A: The GI50 was 1360 nM.

Q: And the TGI (SNB-75 CNS)?
A: The TGI was 4820 nM.

Q: What about the GI50 (OVCAR-3 ovarian) of the same compound?
A: Its GI50 is 2630 nM.

Q: And the TGI (OVCAR-3 ovarian)?
A: Its TGI is 7050 nM.

Q: And the GI50 (MDA-MB-435)?
A: The GI50 was 2230 nM.

Q: And the TGI (MDA-MB-435)?
A: The TGI was 5580 nM.

Q: And the GI50 (SK-MEL-2 melanoma)?
A: Its GI50 is 1770 nM.

Q: What about the TGI (SK-MEL-2 melanoma) of the same compound?
A: The TGI was 3330 nM.

Q: And the GI50 (CCRF-CEM leukemia)?
A: Its GI50 is 2930 nM.

Q: And the TGI (CCRF-CEM leukemia)?
A: The TGI was greater than 100000 nM.

Q: What about the GI50 (SR leukemia) of the same compound?
A: The GI50 was 2120 nM.

Q: And the TGI (SR leukemia)?
A: Its TGI is greater than 100000 nM.

Q: What about the GI50 (NCI-H226 lung) of the same compound?
A: Its GI50 is 2110 nM.

Q: What about the TGI (NCI-H226 lung) of the same compound?
A: Its TGI is 7440 nM.

Q: What about the GI50 (OVCAR-8 ovarian) of the same compound?
A: The GI50 was 1860 nM.

Q: And the TGI (OVCAR-8 ovarian)?
A: Its TGI is 5120 nM.

Q: What about the GI50 (SF-295 CNS) of the same compound?
A: The GI50 was 1740 nM.

Q: What about the TGI (SF-295 CNS) of the same compound?
A: Its TGI is greater than 100000 nM.

Q: And the GI50 (PC-3 prostate)?
A: Its GI50 is 2550 nM.

Q: What about the TGI (PC-3 prostate) of the same compound?
A: The TGI was 15300 nM.

Q: And the GI50 (T-47D breast)?
A: The GI50 was 2200 nM.

Q: What about the TGI (T-47D breast) of the same compound?
A: Its TGI is 6710 nM.

Q: And the GI50 (A549 NSCLC)?
A: Its GI50 is 2390 nM.

Q: And the TGI (A549 NSCLC)?
A: Its TGI is 22800 nM.

Q: And the GI50 (HS 578T breast)?
A: Its GI50 is 2880 nM.

Q: What about the TGI (HS 578T breast) of the same compound?
A: Its TGI is 9440 nM.

Q: What about the GI50 (NCI-H522 lung) of the same compound?
A: Its GI50 is 1190 nM.

Q: What about the TGI (NCI-H522 lung) of the same compound?
A: Its TGI is 3640 nM.

Q: What about the GI50 (CAKI-1 renal) of the same compound?
A: Its GI50 is 2440 nM.

Q: And the TGI (CAKI-1 renal)?
A: The TGI was greater than 100000 nM.

Q: What about the GI50 (MOLT-4 leukemia) of the same compound?
A: The GI50 was 2400 nM.

Q: What about the TGI (MOLT-4 leukemia) of the same compound?
A: The TGI was greater than 100000 nM.

Q: What about the GI50 (SK-OV-3 ovarian) of the same compound?
A: The GI50 was 2910 nM.

Q: And the TGI (SK-OV-3 ovarian)?
A: The TGI was 7870 nM.

Q: What about the GI50 (IGROV1 ovarian) of the same compound?
A: Its GI50 is 2390 nM.

Q: What about the TGI (IGROV1 ovarian) of the same compound?
A: The TGI was 7620 nM.

Q: What about the GI50 (BT-549 breast) of the same compound?
A: Its GI50 is 1690 nM.

Q: And the TGI (BT-549 breast)?
A: The TGI was 4430 nM.

Q: And the GI50 (NCI-H23 lung)?
A: The GI50 was 1080 nM.

Q: And the TGI (NCI-H23 lung)?
A: The TGI was 2900 nM.

Q: And the GI50 (HOP-62 NSCLC)?
A: Its GI50 is 2230 nM.

Q: And the TGI (HOP-62 NSCLC)?
A: The TGI was 5320 nM.

Q: What about the GI50 (SN12C renal) of the same compound?
A: The GI50 was 2330 nM.

Q: What about the TGI (SN12C renal) of the same compound?
A: The TGI was 6660 nM.

Q: And the GI50 (UO-31 renal)?
A: The GI50 was 1650 nM.

Q: And the TGI (UO-31 renal)?
A: Its TGI is 4660 nM.

Q: And the GI50 (TK-10 renal)?
A: The GI50 was 3100 nM.

Q: What about the TGI (TK-10 renal) of the same compound?
A: The TGI was 9250 nM.

Q: And the GI50 (786-0 renal)?
A: Its GI50 is 2970 nM.

Q: And the TGI (786-0 renal)?
A: Its TGI is 9080 nM.

Q: And the GI50 (OVCAR-4 ovarian)?
A: The GI50 was 2440 nM.

Q: What about the TGI (OVCAR-4 ovarian) of the same compound?
A: Its TGI is 7160 nM.

Q: What about the GI50 (ACHN renal) of the same compound?
A: Its GI50 is 860 nM.

Q: And the TGI (ACHN renal)?
A: Its TGI is 5180 nM.

Q: What about the GI50 (RXF 393 renal) of the same compound?
A: Its GI50 is 1510 nM.

Q: And the TGI (RXF 393 renal)?
A: The TGI was 3260 nM.

Q: And the GI50 (MALME-3M melanoma)?
A: Its GI50 is 1700 nM.

Q: And the TGI (MALME-3M melanoma)?
A: Its TGI is 3250 nM.

Q: What about the GI50 (KM12 colon) of the same compound?
A: The GI50 was 2980 nM.

Q: What about the TGI (KM12 colon) of the same compound?
A: Its TGI is greater than 100000 nM.

Q: What about the GI50 (HL-60(TB) leukemia) of the same compound?
A: Its GI50 is 1440 nM.

Q: What about the TGI (HL-60(TB) leukemia) of the same compound?
A: Its TGI is 8870 nM.

Q: What about the GI50 (U251 CNS) of the same compound?
A: The GI50 was 416 nM.

Q: And the TGI (U251 CNS)?
A: The TGI was greater than 100000 nM.

Q: And the GI50 (RPMI-8226 leukemia)?
A: Its GI50 is greater than 100000 nM.

Q: What about the TGI (RPMI-8226 leukemia) of the same compound?
A: Its TGI is greater than 100000 nM.

Q: What about the GI50 (SF-539 CNS) of the same compound?
A: The GI50 was 1850 nM.

Q: And the TGI (SF-539 CNS)?
A: Its TGI is 3830 nM.

Q: And the GI50 (OVCAR-5 ovarian)?
A: The GI50 was 518 nM.

Q: What about the TGI (OVCAR-5 ovarian) of the same compound?
A: The TGI was 33800 nM.

Q: And the GI50 (SF-268 CNS)?
A: The GI50 was 2660 nM.

Q: And the TGI (SF-268 CNS)?
A: The TGI was 21800 nM.

Q: What about the GI50 (LOX IMVI melanoma) of the same compound?
A: The GI50 was 1620 nM.

Q: And the TGI (LOX IMVI melanoma)?
A: The TGI was 4990 nM.

Q: And the GI50 (EKVX NSCLC)?
A: Its GI50 is 2170 nM.

Q: What about the TGI (EKVX NSCLC) of the same compound?
A: The TGI was 5520 nM.

Q: And the GI50 (COLO 205 colon)?
A: The GI50 was 1650 nM.

Q: And the TGI (COLO 205 colon)?
A: Its TGI is 3650 nM.

Q: And the GI50 (K-562 leukemia)?
A: The GI50 was 2020 nM.

Q: And the TGI (K-562 leukemia)?
A: The TGI was greater than 100000 nM.

Q: And the GI50 (MDA-MB-468 breast)?
A: Its GI50 is 977 nM.

Q: What about the TGI (MDA-MB-468 breast) of the same compound?
A: Its TGI is 2770 nM.

Q: And the GI50 (NCI-H460 lung)?
A: The GI50 was 420 nM.

Q: And the TGI (NCI-H460 lung)?
A: The TGI was 6630 nM.

Q: What about the GI50 (HCT-116 colon) of the same compound?
A: The GI50 was 1330 nM.

Q: What about the TGI (HCT-116 colon) of the same compound?
A: Its TGI is greater than 100000 nM.

Q: And the GI50 (SNB-19 CNS)?
A: Its GI50 is 2510 nM.

Q: What about the TGI (SNB-19 CNS) of the same compound?
A: Its TGI is 8670 nM.

Q: And the GI50 (HCT-15 colon)?
A: The GI50 was 1540 nM.

Q: And the TGI (HCT-15 colon)?
A: Its TGI is greater than 100000 nM.

Q: And the GI50 (UACC-257 melanoma)?
A: Its GI50 is 2250 nM.

Q: What about the TGI (UACC-257 melanoma) of the same compound?
A: Its TGI is 5190 nM.

From PubChem BioAssay (NCI)
